Among the data in ChEMBL document CHEMBL1154302, “Cytotoxic acacic acid glycosides from the roots of Albizia coriaria” (J Nat Prod, 2009) are IC50 values, retold here.

One assay has as its system HCT-116. In words: Cytotoxicity against human HCT116 cells after 1 hr by MTT assay. It is filed as functional, cell-based. The settings on record: HCT-116, 1 h. For orientation: Tetrazolium assays rely on reduction of a dye to a coloured formazan, in cell work by metabolically active cells.
In the next assay the test system is HT-29. In words: Cytotoxicity against human HT-29 cells after 1 hr by MTT assay. The class given is functional, cell-based. The settings on record: HT-29, 1 h.

pIC50: −log10 of the molar value.

In general, pIC50 refers to the IC50 on a negative log10 scale, so that one unit is a factor of ten. A higher pIC50 goes with a small IC50. In the case of `C=C[C@](C)(CC/C=C(\C)C(=O)O[C@H]1[C@H](O)[C@@H](O)[C@H](O[C@](C)(C=C)CC/C=C(\C)C(=O)O[C@H]2[C@H](O)[C@@H](O)[C@H](O[C@](C)(C=C)CC/C=C(/C)C(=O)O[C@H]3C[C@]4(C(=O)O[C@@H]5O[C@H](CO)[C@@H](O)[C@H](O)[C@H]5O[C@@H]5O[C@@H](C)[C@H](O[C@@H]6O[C@@H](CO)[C@H](O)[C@H]6O)[C@@H](O[C@@H]6O[C@H](CO)[C@@H](O)[C@H](O)[C@H]6O)[C@H]5O)[C@H](O)C[C@]5(C)C(=CC[C@@H]6[C@@]7(C)CC[C@H](O[C@@H]8O[C@H](CO[C@@H]9O[C@H](C)[C@H](O)[C@H](O)[C@H]9O)[C@@H](O)[C@H](O)[C@H]8O[C@@H]8O[C@H](CO)[C@@H](O)[C@H](O)[C@H]8O)C(C)(C)C7CC[C@]65C)[C@@H]4CC3(C)C)O[C@@H]2C)O[C@@H]1C)O[C@@H]1O[C@H](C)[C@@H](O)[C@H](O)[C@H]1O` (some centres undefined) [CORIARIOSIDE A], the pIC50 is 5.38 in the assay on HCT-116 and 5.17 in the assay on HT-29.
Regarding `CC(=O)O[C@H]1C(=O)[C@@]2(C)[C@H]([C@H](OC(=O)c3ccccc3)[C@]3(O)C[C@H](OC(=O)[C@H](O)[C@@H](NC(=O)c4ccccc4)c4ccccc4)C(C)=C1C3(C)C)[C@]1(OC(C)=O)CO[C@@H]1C[C@@H]2O` [PACLITAXEL], the pIC50 in the assay on HCT-116 was 8.46; in the assay on HT-29, 8.47.
